In patent US6579983B1, “5-cyano-2-aminopyrimidine derivatives” (Celltech R&D Limited, priority 1999, dated 2003):

melting point | Compound
167 to 168 °C | COc1cc(Nc2ncc(C#N)c(-c3ccc(C(C)(C)N)cc3)n2)cc(OC)c1OC [Example 9, 4-[4-(1-Amino-1-methylethyl)phenyl]-5-cyano-N-(3,4,5-trimethoxyphenyl)pyrimidine-2-amine]
267 to 271 °C (dec.) | CC(C)(N)c1ccc(-c2nc(Nc3ccc4[nH]ncc4c3)ncc2C#N)cc1 [Example 8, 4-[4-(1-Amino-1-methylethyl)phenyl]-5-cyano-N-(indazol-5-yl)pyrimidine-2-amine]
